Results as given in ChEMBL document CHEMBL4311957, “Recent advances in natural antifungal flavonoids and their derivatives” (Bioorg Med Chem Lett, 2019).
≈ marks a conversion by molar mass, not a printed value.

Legend:
Candida albicans [1] = assay: Antifungal activity against Candida albicans ATCC 44859 after 24 to 48 hrs; assay type: functional
Trichophyton rubrum [2] = assay: Antifungal activity against Trichophyton rubrum ATCC MYA3108 by CLSI-based microdilution method; assay type: functional
Aspergillus fumigatus = assay: Antifungal activity against Aspergillus fumigatus; assay type: functional
Trichophyton rubrum [3] = assay: Antifungal activity against Trichophyton rubrum deltaTruMDR2 by CLSI-based microdilution method; assay type: functional
Candida albicans [4] = assay: Antifungal activity against Candida albicans; assay type: functional, organism-based
[5] = Inhibition of fatty acid synthase in Trichophyton rubrum ATCC MYA3108
Candida tropicalis [6] = assay: Antifungal activity against Candida tropicalis CCC 131-2000 after 48 hrs by CLSI-based broth microdilution method; assay type: functional; details: CCC 131-2000, 48 h
Nakaseomyces glabratus [7] = assay: Antifungal activity against Candida glabrata 587 by microdilution method; assay type: functional
Cryptococcus neoformans [8] = assay: Antifungal activity against Cryptococcus neoformans by microdilution method; assay type: functional
Nakaseomyces glabratus [9] = assay: Antifungal activity against Candida glabrata 510 by microdilution method; assay type: functional
Candida parapsilosis [10] = assay: Antifungal activity against Candida parapsilosis 96 by microdilution method; assay type: functional; details: Lodderomyces parapsilosis
Candida albicans [11] = assay: Antifungal activity against Candida albicans ATCC 10231 after 48 hrs by CLSI-based broth microdilution method; assay type: functional; details: ATCC 10231, 48 h
Candida albicans [12] = assay: Antifungal activity against Candida albicans 53 by microdilution method; assay type: functional
Candida albicans [13] = assay: Antifungal activity against Candida albicans 501 by microdilution method; assay type: functional
Nakaseomyces glabratus [14] = assay: Antifungal activity against Candida glabrata 482 by microdilution method; assay type: functional
Nakaseomyces glabratus [15] = assay: Antifungal activity against Candida glabrata 507 by microdilution method; assay type: functional
Pichia kudriavzevii [16] = assay: Antifungal activity against Candida krusei 168 by microdilution method; assay type: functional
Nakaseomyces glabratus [17] = assay: Antifungal activity against Candida glabrata 531 by microdilution method; assay type: functional
Candida tropicalis [18] = assay: Antifungal activity against Candida tropicalis 166 by microdilution method; assay type: functional
Candida albicans [19] = assay: Antifungal activity against Candida albicans 498 by microdilution method; assay type: functional
Candida albicans [20] = assay: Antifungal activity against Candida albicans ATCC 10231 by microdilution method; assay type: functional
Nakaseomyces glabratus [21] = assay: Antifungal activity against Candida glabrata 493 by microdilution method; assay type: functional
Candida tropicalis [22] = assay: Synergistic antifungal activity against FLC-resistant Candida tropicalis 2718 after 24 to 72 hrs in presence of FLC by checkerboard microbroth dilution method; assay type: functional
Candida parapsilosis [23] = assay: Synergistic antifungal activity against FLC-resistant Candida parapsilosis ATCC 22019 after 24 to 72 hrs in presence of FLC by checkerboard microbroth dilution method; assay type: functional; details: Lodderomyces parapsilosis
Pichia kudriavzevii [24] = assay: Synergistic antifungal activity against FLC-resistant Candida krusei ATCC2340 after 24 to 72 hrs in presence of FLC by checkerboard microbroth dilution method; assay type: functional
Cryptococcus neoformans [25] = assay: Synergistic antifungal activity against FLC-resistant Cryptococcus neoformans 32609 after 24 to 72 hrs in presence of FLC by checkerboard microbroth dilution method; assay type: functional
Candida albicans [26] = assay: Synergistic antifungal activity against FLC-resistant Candida albicans after 24 to 72 hrs by checkerboard microbroth dilution method; assay type: functional
Candida tropicalis [27] = assay: Synergistic antifungal activity against FLC-resistant Candida tropicalis 2718 after 24 to 72 hrs by checkerboard microbroth dilution method; assay type: functional
Pichia kudriavzevii [28] = assay: Synergistic antifungal activity against FLC-resistant Candida krusei ATCC2340 after 24 to 72 hrs by checkerboard microbroth dilution method; assay type: functional
Cryptococcus neoformans [29] = assay: Synergistic antifungal activity against FLC-resistant Cryptococcus neoformans 32609 after 24 to 72 hrs by checkerboard microbroth dilution method; assay type: functional
Nakaseomyces glabratus [30] = assay: Synergistic antifungal activity against FLC-resistant Candida glabrata ATCC1182 after 24 to 72 hrs by checkerboard microbroth dilution method; assay type: functional
Candida albicans [31] = assay: Synergistic antifungal activity against FLC-resistant Candida albicans after 24 to 72 hrs in presence of FLC by checkerboard microbroth dilution method; assay type: functional
Candida parapsilosis [32] = assay: Synergistic antifungal activity against FLC-resistant Candida parapsilosis ATCC 22019 after 24 to 72 hrs by checkerboard microbroth dilution method; assay type: functional; details: Lodderomyces parapsilosis
Nakaseomyces glabratus [33] = assay: Synergistic antifungal activity against FLC-resistant Candida glabrata ATCC1182 after 24 to 72 hrs in presence of FLC by checkerboard microbroth dilution method; assay type: functional
Malassezia furfur = assay: Antifungal activity against Malassezia furfur KCTC 7744 by ELISA; assay type: functional
Candida albicans [34] = assay: Antifungal activity against Candida albicans ATCC 90028 by ELISA; assay type: functional
Trichosporon beigelii = assay: Antifungal activity against Trichosporon beigelii KCTC 7707 by ELISA; assay type: functional
Trichophyton rubrum [35] = assay: Antifungal activity against Trichophyton rubrum KCTC 6345 by ELISA; assay type: functional
Candida parapsilosis [36] = assay: Antifungal activity against Candida parapsilosis ATCC 22019 by ELISA; assay type: functional; details: Lodderomyces parapsilosis
Candida tropicalis [37] = assay: Antifungal activity against FLC-resistant Candida tropicalis; assay type: functional
Cryptococcus neoformans [38] = assay: Antifungal activity against Cryptococcus neoformans by CLSI-based microdilution method; assay type: functional
Candida tropicalis [39] = assay: Antifungal activity against FLC-resistant Candida tropicalis in presence of FLC; assay type: functional

Compound | MIC (Trichophyton rubrum [2]) [µg/mL] | MIC (Trichophyton rubrum [3]) [µg/mL] | MIC (Nakaseomyces glabratus [7]) [µg/mL] | MIC (Nakaseomyces glabratus [9]) [µg/mL] | MIC (Candida parapsilosis [10]) [µg/mL] | MIC (Candida albicans [12]) [µg/mL] | MIC (Candida albicans [13]) [µg/mL] | MIC (Nakaseomyces glabratus [14]) [µg/mL] | MIC (Nakaseomyces glabratus [15]) [µg/mL] | MIC (Pichia kudriavzevii [16]) [µg/mL] | MIC (Nakaseomyces glabratus [17]) [µg/mL] | MIC (Candida tropicalis [18]) [µg/mL] | MIC (Candida albicans [19]) [µg/mL] | MIC (Candida albicans [20]) [µg/mL] | MIC (Nakaseomyces glabratus [21]) [µg/mL] | further results
OC(Cn1cncn1)(Cn1cncn1)c1ccc(F)cc1F [FLUCONAZOLE] | 63 (≈ 206 µM) | 63 (≈ 206 µM) | – | – | – | – | – | – | – | – | – | – | – | – | – | MIC (Candida albicans [1]): 10.2 µM (≈ 3.12 µg/mL); MIC (Aspergillus fumigatus): 125 µg/mL (≈ 408 µM); MIC (Candida albicans [4]): 5.1 to 62.5 µg/mL (≈ 16.7 to 204 µM); IC50 [5]: 68.23 µg/mL (≈ 223 µM)
O=c1c(O)c(-c2ccccc2)oc2cc(O)cc(O)c12 [GALANGIN] | > 1000 | > 1000 | 15.6 to 62.5 (≈ 57.7 to 231 µM) | 15.6 to 62.5 (≈ 57.7 to 231 µM) | > 83 | > 83 | > 83 | 15.6 to 62.5 (≈ 57.7 to 231 µM) | 15.6 to 62.5 (≈ 57.7 to 231 µM) | > 83 | 15.6 to 62.5 (≈ 57.7 to 231 µM) | > 83 | > 83 | > 83 | 15.6 to 62.5 (≈ 57.7 to 231 µM) | MIC (Candida tropicalis [6]): 31.2 µg/mL (≈ 115 µM); MIC (Cryptococcus neoformans [8]): 31.2 µg/mL (≈ 115 µM); MIC (Candida albicans [11]): 31.2 µg/mL (≈ 115 µM)
CC1(C)C=Cc2c(ccc3c2OC[C@@H](c2ccc(O)cc2O)C3)O1 [GLABRIDIN] | – | – | – | – | – | – | – | – | – | – | – | – | – | – | – | MIC (Candida tropicalis [22]): 1 to 16 µg/mL; MIC (Candida parapsilosis [23]): 1 to 16 µg/mL; MIC (Pichia kudriavzevii [24]): 1 to 16 µg/mL; MIC (Cryptococcus neoformans [25]): 16 to 64 µg/mL; MIC (Candida albicans [26]): 32 µg/mL; MIC (Candida tropicalis [27]): 64 µg/mL; MIC (Pichia kudriavzevii [28]): 16 to 64 µg/mL; MIC (Cryptococcus neoformans [29]): 16 µg/mL; MIC (Nakaseomyces glabratus [30]): 64 µg/mL; MIC (Candida albicans [31]): 64 µg/mL; MIC (Candida parapsilosis [32]): 64 µg/mL; MIC (Nakaseomyces glabratus [33]): 1 to 16 µg/mL
O=c1c(O[C@@H]2O[C@H](CO)[C@@H](O)[C@H](O)[C@H]2O)c(-c2ccc(O)c(O)c2)oc2cc(O)cc(O)c12 [ISOQUERCETIN] | – | – | – | – | – | – | – | – | – | – | – | – | – | – | – | MIC (Malassezia furfur): 2.5 to 5 µg/mL (≈ 5.38 to 10.8 µM); MIC (Candida albicans [34]): 2.5 µg/mL (≈ 5.38 µM); MIC (Trichosporon beigelii): 5 µg/mL (≈ 10.8 µM); MIC (Trichophyton rubrum [35]): 2.5 µg/mL (≈ 5.38 µM); MIC (Candida parapsilosis [36]): 2.5 µg/mL (≈ 5.38 µM)
O=c1c(O)c(-c2ccc(O)c(O)c2)oc2cc(O)cc(O)c12 [QUERCETIN] | 125 (≈ 414 µM) | 125 (≈ 414 µM) | 7.8 to 15.8 (≈ 25.8 to 52.3 µM) | 7.8 to 15.8 (≈ 25.8 to 52.3 µM) | > 83 | > 83 | > 83 | 7.8 to 15.8 (≈ 25.8 to 52.3 µM) | 7.8 to 15.8 (≈ 25.8 to 52.3 µM) | > 83 | 7.8 to 15.8 (≈ 25.8 to 52.3 µM) | > 83 | > 83 | > 83 | 7.8 to 15.8 (≈ 25.8 to 52.3 µM) | MIC (Candida tropicalis [37]): ≤ 0.5 µg/mL; MIC (Cryptococcus neoformans [38]): > 125 µg/mL; MIC (Candida tropicalis [39]): 16 µg/mL
